Assay results: PubChem BioAssay (NCI)
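Step 1: Grow cells in 96-well plates. Step 2: Expose to compound for 48 hours at 5 concentrations. Step 3: Interpolate endpoints linearly; if unreached, use highest concentration. At the TGI there is no net growth.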

Experiments:
Experiment in all cases: inhibition of tumour cell growth, NCI panel, 48 h
NCI-H460 lung = test system: NCI-H460 lung
HT29 colon = test system: HT29 colon
SF-268 CNS = test system: SF-268 CNS
SK-MEL-2 melanoma = test system: SK-MEL-2 melanoma
HL-60(TB) leukemia = test system: HL-60(TB) leukemia
LOX IMVI melanoma = test system: LOX IMVI melanoma
HOP-62 NSCLC = test system: HOP-62 NSCLC
SW-620 colon = test system: SW-620 colon
786-0 renal = test system: 786-0 renal
RPMI-8226 leukemia = test system: RPMI-8226 leukemia
SK-MEL-5 melanoma = test system: SK-MEL-5 melanoma
TK-10 renal = test system: TK-10 renal
SF-295 CNS = test system: SF-295 CNS
SR leukemia = test system: SR leukemia
UO-31 renal = test system: UO-31 renal
DU-145 prostate = test system: DU-145 prostate
HS 578T breast = test system: HS 578T breast
MDA-MB-435 = test system: MDA-MB-435
BT-549 breast = test system: BT-549 breast

SMILES | TGI (NCI-H460 lung) | TGI (HT29 colon) | TGI (SF-268 CNS) | TGI (SK-MEL-2 melanoma) | TGI (HL-60(TB) leukemia) | TGI (LOX IMVI melanoma) | TGI (HOP-62 NSCLC) | TGI (SW-620 colon) | TGI (786-0 renal) | TGI (RPMI-8226 leukemia) | TGI (SK-MEL-5 melanoma) | TGI (TK-10 renal) | TGI (SF-295 CNS) | TGI (SR leukemia) | TGI (UO-31 renal) | TGI (DU-145 prostate) | TGI (HS 578T breast) | TGI (MDA-MB-435) | TGI (BT-549 breast)
COc1ccc(OC)c(/C=C2\CCc3ccccc3C2=O)c1 | 27.5 µM | 16.7 µM | 22.2 µM | 12.8 µM | 5.96 µM | 20.1 µM | 10.8 µM | 15.4 µM | 13.8 µM | 19.6 µM | 12.4 µM | 30.3 µM | 12.4 µM | – | – | – | – | – | –
CSc1ccc(NC(=O)C2c3[nH]c4ccccc4c3C3CCC(C(C)(C)C)CC3C2C(=O)O)cc1 (centres undefined) | – | 39.1 µM | 47 µM | – | 23 µM | – | 32.1 µM | 32.1 µM | 32.2 µM | 58.6 µM | 66 µM | – | 38.5 µM | 25.5 µM | 61.6 µM | – | – | – | –
COc1cc([C@@H]2c3cc4c(cc3[C@@H](OC(=O)c3cccc(N)c3)C3COC(=O)[C@@H]32)OCO4)cc(OC)c1O (some centres undefined) | 20.4 µM | 24.5 µM | > 61.1 µM | 73.3 µM | > 41.2 µM | 33.8 µM | 18 µM | > 100 µM | 28.9 µM | 43.9 µM | 14 µM | > 100 µM | 35.4 µM | 17.9 µM | 26.4 µM | – | – | – | –
COc1ccc(-c2csc(Cc3nc4c(Br)cc(Br)cc4c(=O)n3-c3ccc(OC)cc3)n2)cc1 | > 100 µM | > 100 µM | – | > 100 µM | – | > 100 µM | > 100 µM | > 100 µM | > 100 µM | – | 89.3 µM | > 100 µM | > 100 µM | – | > 100 µM | > 100 µM | > 100 µM | > 100 µM | > 100 µM
CC1=NN2C(c3ccc([N+](=O)[O-])cc3)=CSC2=NC(C)(C)C1 | > 100 µM | > 100 µM | > 100 µM | > 100 µM | > 100 µM | > 100 µM | > 100 µM | > 100 µM | > 100 µM | > 100 µM | > 100 µM | > 100 µM | > 100 µM | > 100 µM | > 100 µM | – | – | – | –
N#CC(C#N)=c1c2ccccc2c(=C(C#N)C#N)c2ccccc12 | 63.6 µM | 39.5 µM | 77.5 µM | 32.9 µM | 59.2 µM | 40.5 µM | 40.5 µM | 82.8 µM | 30.6 µM | > 100 µM | 31 µM | – | – | – | – | – | 47.7 µM | 40.1 µM | 65 µM
COC(=O)Cc1c([C@H]2[C@H](CC(=O)OC)c3ccccc3N2S(=O)(=O)c2ccc(C)cc2)[nH]c2ccccc12 | > 100 µM | > 100 µM | > 100 µM | > 100 µM | > 100 µM | > 100 µM | > 100 µM | > 100 µM | > 100 µM | > 100 µM | > 100 µM | > 100 µM | > 100 µM | > 84.9 µM | > 100 µM | > 100 µM | > 100 µM | > 100 µM | > 100 µM
CC(=O)C1C(=O)C(=O)N(c2ccc([N+](=O)[O-])cc2)C1=O (centres undefined) | > 100 µM | > 100 µM | > 100 µM | > 100 µM | > 100 µM | > 100 µM | > 100 µM | > 100 µM | > 100 µM | – | > 100 µM | > 100 µM | > 100 µM | – | > 100 µM | > 100 µM | > 100 µM | > 100 µM | > 100 µM
CCOC(=O)CSC1NC(C(=O)OC)CC1OC (centres undefined) | > 100 µM | > 100 µM | > 100 µM | > 100 µM | – | – | > 100 µM | > 100 µM | > 100 µM | > 100 µM | > 100 µM | > 100 µM | > 100 µM | – | > 100 µM | > 100 µM | > 100 µM | > 100 µM | > 100 µM
Nc1nc(N)c2ncn(CCOC(c3ccccc3)P(=O)(O)O)c2n1 (centres undefined) | > 100 µM | > 100 µM | > 100 µM | > 100 µM | > 100 µM | > 100 µM | – | > 100 µM | > 100 µM | – | > 100 µM | > 100 µM | > 100 µM | > 100 µM | > 100 µM | – | – | – | –
S=C(N/N=C/c1ccccn1)N1CC2CCC(CC2)C1 | 0.207 µM | 17.3 µM | 14.8 µM | 15.5 µM | 0.143 µM | 12.4 µM | 0.461 µM | 14.5 µM | 0.242 µM | – | – | 1.82 µM | 11.1 µM | – | 2.24 µM | 12 µM | 30.6 µM | 15.1 µM | 12.5 µM
Cc1c2ccncc2c(C)c2c1[nH]c1ccc(Oc3ccccc3)cc12 | – | 3.84 µM | > 28.4 µM | – | 5.88 µM | 4 µM | 4.42 µM | > 100 µM | 3.24 µM | 5.27 µM | 9.46 µM | 22.9 µM | 12.6 µM | 12.3 µM | 35.2 µM | – | – | – | –
Cn1c2ccccc2c2ccc3c(c21)C(=O)C(c1ccccc1)=CC3=O | > 100 µM | > 100 µM | > 100 µM | 45.3 µM | > 100 µM | – | > 100 µM | – | 32.8 µM | 99.2 µM | 87.5 µM | > 100 µM | > 100 µM | – | > 100 µM | – | – | – | –
N#Cc1ccc(Oc2ccccc2)cc1C#N | > 100 µM | > 100 µM | > 100 µM | > 100 µM | > 100 µM | 38.7 µM | > 100 µM | – | > 100 µM | > 100 µM | > 100 µM | > 100 µM | > 100 µM | 49.7 µM | > 100 µM | – | – | – | –
CC1(C)c2ccccc2N2O[C@@H]3C(=O)N(c4ccccc4)C(=O)[C@@H]3C21c1ccccc1 (some centres undefined) | – | > 100 µM | > 100 µM | > 100 µM | > 100 µM | > 100 µM | > 100 µM | > 100 µM | > 100 µM | > 100 µM | > 100 µM | > 100 µM | > 100 µM | – | > 100 µM | – | – | – | –
CC1(C)Cc2c(oc3ncnc(N)c23)CS1 | > 100 µM | > 100 µM | > 100 µM | > 100 µM | – | > 100 µM | > 100 µM | > 100 µM | > 100 µM | > 100 µM | > 100 µM | – | > 100 µM | > 100 µM | > 100 µM | – | – | – | –
